Assay results from patent US20020137929A1, “1 - (3-heterocyclylphenyl) isothiourea, -isourea, -guanidine and -amidine herbicidal agents” (Intellectual Property Department, BASF Aktiengesellschaft, priority 1998, published 2002).

What was measured:
[1] = test system: ABUTH (Velvetleaf); assay: Postemergence herbicidal evaluation; assay type: in vivo, Abutilon theophrasti; conditions: postemergence
Summary of the method: (§1)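 Herbicidal effect was judged by eye on a 0–9 scale covering stand, vigor, deformity, size and chlorosis, compared with controls, four to five weeks after seedlings about two weeks old were sprayed (40 psi, ~0.0156–0.500 kg/ha).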

[2] = test system: CHEAL (Lambsquarters, Common); assay: Postemergence herbicidal evaluation; assay type: in vivo, Chenopodium album; conditions: postemergence
Summary of the method: as §1

[3] = test system: IPOHE (Morningglory, Ivyleaf); assay: Postemergence herbicidal evaluation; assay type: in vivo, Ipomoea hederacea; conditions: postemergence
Summary of the method: as §1

[4] = test system: ECHCG (Barnyardgrass); assay: Postemergence herbicidal evaluation; assay type: in vivo, Echinochloa crus-galli; conditions: postemergence
Summary of the method: as §1

[5] = test system: SETVI (Foxtail, Green); assay: Postemergence herbicidal evaluation; assay type: in vivo, Setaria viridis; conditions: postemergence
Summary of the method: as §1

[6] = test system: ORYSAT (Rice, Tebonnet); assay: Postemergence herbicidal evaluation; assay type: in vivo, Oryza sativa, (L.) Tebonnet; conditions: postemergence
Summary of the method: as §1

[7] = test system: ZEAMX (Corn, Field); assay: Postemergence herbicidal evaluation; assay type: in vivo, Zea mays; conditions: postemergence
Summary of the method: as §1

[8] = test system: ABUTH (Velvetleaf); assay: Preemergence herbicidal evaluation; assay type: in vivo, Abutilon theophrasti; conditions: rated 4-5 weeks after treatment, rating scale 0-9
Summary of the method: (§2)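 Steps: mix seeds into potting soil; plant atop ~1 inch soil; spray compound in aqueous acetone (~0.0156-0.500 kg/ha equivalent); maintain in greenhouse with watering; rate visually 0-9 versus control at 4-5 weeks.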

[9] = test system: CASOB (Sicklepod); assay: Preemergence herbicidal evaluation; assay type: in vivo, Cassia obtusifolia; conditions: rated 4-5 weeks after treatment, rating scale 0-9
Summary of the method: as §2

[10] = test system: CHEAL (Lambsquarters, Common); assay: Preemergence herbicidal evaluation; assay type: in vivo, Chenopodium album; conditions: rated 4-5 weeks after treatment, rating scale 0-9
Summary of the method: as §2

[11] = test system: IPOHE (Morningglory, Ivyleaf); assay: Preemergence herbicidal evaluation; assay type: in vivo, Ipomoea hederacea; conditions: rated 4-5 weeks after treatment, rating scale 0-9
Summary of the method: as §2

[12] = test system: ECHCG (Barnyardgrass); assay: Preemergence herbicidal evaluation; assay type: in vivo, Echinochloa crus-galli; conditions: rated 4-5 weeks after treatment, rating scale 0-9
Summary of the method: as §2

[13] = test system: GLXMAW (Soybean, Williams); assay: Preemergence herbicidal evaluation; assay type: in vivo, Glycine max, (L.) Merr. cv Williams; conditions: rated 4-5 weeks after treatment, rating scale 0-9
Summary of the method: as §2

[14] = test system: TRZAWR (Wheat, Winter, cv Riband); assay: Preemergence herbicidal evaluation; assay type: in vivo, Triticum aestivum; conditions: rated 4-5 weeks after treatment, rating scale 0-9
Summary of the method: as §2

[15] = test system: ZEAMX (Corn, Field); assay: Preemergence herbicidal evaluation; assay type: in vivo, Zea mays; conditions: rated 4-5 weeks after treatment, rating scale 0-9
Summary of the method: as §2

## COc1cc(CN2C(=O)CSC2=Nc2cc(-n3c(=O)cc(C(F)(F)F)n(C)c3=O)c(F)cc2Cl)cc(OC)c1OC [Compound 140, 3-{4-Chloro-2-fluoro-5-{[3-(3,4,5-trimethoxybenzyl)-4-oxo-2-thiazolidinylidene]amino}phenyl}-1-methyl-6-(trifluoromethyl)-2,4(1H,3H)-pyrimidinedione]
[1]; rate 0.0156 kg/ha
  Herbicidal rating ABUTH: 4.0
[1]; rate 0.0313 kg/ha
  Herbicidal rating ABUTH: 4.0
[1]; rate 0.0625 kg/ha
  Herbicidal rating ABUTH: 9.0
[2]; rate 0.0156 kg/ha
  Herbicidal rating CHEAL: 3.0
[2]; rate 0.0625 kg/ha
  Herbicidal rating CHEAL: 3.0
[3]; rate 0.0156 kg/ha
  Herbicidal rating IPOHE: 9.0
[3]; rate 0.0313 kg/ha
  Herbicidal rating IPOHE: 9.0
[3]; rate 0.0625 kg/ha
  Herbicidal rating IPOHE: 9.0
[4]; rate 0.0156 kg/ha
  Herbicidal rating ECHCG: 0.0
[4]; rate 0.0313 kg/ha
  Herbicidal rating ECHCG: 0.0
[4]; rate 0.0625 kg/ha
  Herbicidal rating ECHCG: 0.0
[5]; rate 0.0156 kg/ha
  Herbicidal rating SETVI: 0.0
[5]; rate 0.0313 kg/ha
  Herbicidal rating SETVI: 0.0
[5]; rate 0.0625 kg/ha
  Herbicidal rating SETVI: 0.0
[6]; rate 0.0156 kg/ha
  Herbicidal rating ORYSAT: 0.5
[6]; rate 0.0313 kg/ha
  Herbicidal rating ORYSAT: 0.5
[6]; rate 0.0625 kg/ha
  Herbicidal rating ORYSAT: 1.5
[7]; rate 0.0156 kg/ha
  Herbicidal rating ZEAMX: 3.5
[7]; rate 0.0313 kg/ha
  Herbicidal rating ZEAMX: 4.0
[7]; rate 0.0625 kg/ha
  Herbicidal rating ZEAMX: 4.0
[8]; rate 0.0625 kg/ha
  Preemergence herbicidal rating ABUTH: 0.0
[8]; rate 0.1250 kg/ha
  Preemergence herbicidal rating ABUTH: 3.0
[8]; rate 0.2500 kg/ha
  Preemergence herbicidal rating ABUTH: 7.0
[9]; rate 0.0625 kg/ha
  Preemergence herbicidal rating CASOB: 0.0
[9]; rate 0.1250 kg/ha
  Preemergence herbicidal rating CASOB: 0.0
[9]; rate 0.2500 kg/ha
  Preemergence herbicidal rating CASOB: 0.0
[10]; rate 0.0625 kg/ha
  Preemergence herbicidal rating CHEAL: 9.0
[10]; rate 0.1250 kg/ha
  Preemergence herbicidal rating CHEAL: 9.0
[10]; rate 0.2500 kg/ha
  Preemergence herbicidal rating CHEAL: 9.0
[11]; rate 0.0625 kg/ha
  Preemergence herbicidal rating IPOHE: 0.0
[11]; rate 0.1250 kg/ha
  Preemergence herbicidal rating IPOHE: 3.0
[11]; rate 0.2500 kg/ha
  Preemergence herbicidal rating IPOHE: 3.0
[12]; rate 0.0625 kg/ha
  Preemergence herbicidal rating ECHCG: 0.0
[12]; rate 0.1250 kg/ha
  Preemergence herbicidal rating ECHCG: 0.0
[12]; rate 0.2500 kg/ha
  Preemergence herbicidal rating ECHCG: 0.0
[13]; rate 0.0625 kg/ha
  Preemergence herbicidal rating GLXMAW: 0.0
[13]; rate 0.1250 kg/ha
  Preemergence herbicidal rating GLXMAW: 0.0
[13]; rate 0.2500 kg/ha
  Preemergence herbicidal rating GLXMAW: 0.0
[14]; rate 0.0625 kg/ha
  Preemergence herbicidal rating TRZAWR: 0.0
[14]; rate 0.1250 kg/ha
  Preemergence herbicidal rating TRZAWR: 0.0
[14]; rate 0.2500 kg/ha
  Preemergence herbicidal rating TRZAWR: 0.0
[15]; rate 0.0625 kg/ha
  Preemergence herbicidal rating ZEAMX: 0.0
[15]; rate 0.1250 kg/ha
  Preemergence herbicidal rating ZEAMX: 0.0
[15]; rate 0.2500 kg/ha
  Preemergence herbicidal rating ZEAMX: 0.0

## Cn1c(C(F)(F)F)cc(=O)n(-c2cc(N=C3SCC(=O)N3Cc3ccc(C(F)(F)F)cc3)c(Cl)cc2F)c1=O [Compound 141, 3-{4-Chloro-2-fluoro-5-{{3-[p-(trifluoromethyl)benzyl]-4-oxo-2-thiazolidinylidene}-amino}phenyl}-1-methyl-6-(trifluoromethyl)-2,4 (1H, 3H)-pyrimidinedione]
[1]; rate 0.0156 kg/ha
  Herbicidal rating ABUTH: 7.0
[1]; rate 0.0313 kg/ha
  Herbicidal rating ABUTH: 7.0
[1]; rate 0.0625 kg/ha
  Herbicidal rating ABUTH: 8.0
[2]; rate 0.0156 kg/ha
  Herbicidal rating CHEAL: 3.0
[2]; rate 0.0313 kg/ha
  Herbicidal rating CHEAL: 5.0
[2]; rate 0.0625 kg/ha
  Herbicidal rating CHEAL: 9.0
[3]; rate 0.0156 kg/ha
  Herbicidal rating IPOHE: 9.0
[3]; rate 0.0313 kg/ha
  Herbicidal rating IPOHE: 9.0
[3]; rate 0.0625 kg/ha
  Herbicidal rating IPOHE: 9.0
[4]; rate 0.0156 kg/ha
  Herbicidal rating ECHCG: 0.0
[4]; rate 0.0313 kg/ha
  Herbicidal rating ECHCG: 0.0
[4]; rate 0.0625 kg/ha
  Herbicidal rating ECHCG: 0.0
[5]; rate 0.0156 kg/ha
  Herbicidal rating SETVI: 0.0
[5]; rate 0.0313 kg/ha
  Herbicidal rating SETVI: 0.0
[5]; rate 0.0625 kg/ha
  Herbicidal rating SETVI: 0.0
[6]; rate 0.0156 kg/ha
  Herbicidal rating ORYSAT: 0.5
[6]; rate 0.0313 kg/ha
  Herbicidal rating ORYSAT: 1.5
[6]; rate 0.0625 kg/ha
  Herbicidal rating ORYSAT: 2.0
[7]; rate 0.0156 kg/ha
  Herbicidal rating ZEAMX: 4.0
[7]; rate 0.0313 kg/ha
  Herbicidal rating ZEAMX: 4.5
[7]; rate 0.0625 kg/ha
  Herbicidal rating ZEAMX: 5.0
[8]; rate 0.0156 kg/ha
  Preemergence herbicidal rating ABUTH: 0.0
[8]; rate 0.0313 kg/ha
  Preemergence herbicidal rating ABUTH: 0.0
[8]; rate 0.0625 kg/ha
  Preemergence herbicidal rating ABUTH: 0.0
[8]; rate 0.1250 kg/ha
  Preemergence herbicidal rating ABUTH: 4.0
[8]; rate 0.2500 kg/ha
  Preemergence herbicidal rating ABUTH: 9.0
[9]; rate 0.0156 kg/ha
  Preemergence herbicidal rating CASOB: 0.0
[9]; rate 0.0313 kg/ha
  Preemergence herbicidal rating CASOB: 0.0
[9]; rate 0.0625 kg/ha
  Preemergence herbicidal rating CASOB: 0.0
[9]; rate 0.1250 kg/ha
  Preemergence herbicidal rating CASOB: 0.0
[9]; rate 0.2500 kg/ha
  Preemergence herbicidal rating CASOB: 3.0
[10]; rate 0.0156 kg/ha
  Preemergence herbicidal rating CHEAL: 3.0
[10]; rate 0.0313 kg/ha
  Preemergence herbicidal rating CHEAL: 9.0
[10]; rate 0.0625 kg/ha
  Preemergence herbicidal rating CHEAL: 9.0
[10]; rate 0.1250 kg/ha
  Preemergence herbicidal rating CHEAL: 9.0
[10]; rate 0.2500 kg/ha
  Preemergence herbicidal rating CHEAL: 9.0
[11]; rate 0.0156 kg/ha
  Preemergence herbicidal rating IPOHE: 0.0
[11]; rate 0.0313 kg/ha
  Preemergence herbicidal rating IPOHE: 0.0
[11]; rate 0.0625 kg/ha
  Preemergence herbicidal rating IPOHE: 0.0
[11]; rate 0.1250 kg/ha
  Preemergence herbicidal rating IPOHE: 0.0
[11]; rate 0.2500 kg/ha
  Preemergence herbicidal rating IPOHE: 3.0
[12]; rate 0.0156 kg/ha
  Preemergence herbicidal rating ECHCG: 0.0
[12]; rate 0.0313 kg/ha
  Preemergence herbicidal rating ECHCG: 0.0
[12]; rate 0.0625 kg/ha
  Preemergence herbicidal rating ECHCG: 0.0
[12]; rate 0.1250 kg/ha
  Preemergence herbicidal rating ECHCG: 0.0
[12]; rate 0.2500 kg/ha
  Preemergence herbicidal rating ECHCG: 2.0
[13]; rate 0.0156 kg/ha
  Preemergence herbicidal rating GLXMAW: 0.0
[13]; rate 0.0313 kg/ha
  Preemergence herbicidal rating GLXMAW: 0.0
[13]; rate 0.0625 kg/ha
  Preemergence herbicidal rating GLXMAW: 0.0
[13]; rate 0.1250 kg/ha
  Preemergence herbicidal rating GLXMAW: 0.0
[13]; rate 0.2500 kg/ha
  Preemergence herbicidal rating GLXMAW: 3.0
[14]; rate 0.0156 kg/ha
  Preemergence herbicidal rating TRZAWR: 0.0
[14]; rate 0.0313 kg/ha
  Preemergence herbicidal rating TRZAWR: 0.0
[14]; rate 0.0625 kg/ha
  Preemergence herbicidal rating TRZAWR: 0.0
[14]; rate 0.1250 kg/ha
  Preemergence herbicidal rating TRZAWR: 0.0
[14]; rate 0.2500 kg/ha
  Preemergence herbicidal rating TRZAWR: 0.0
[15]; rate 0.0156 kg/ha
  Preemergence herbicidal rating ZEAMX: 0.0
[15]; rate 0.0313 kg/ha
  Preemergence herbicidal rating ZEAMX: 0.0
[15]; rate 0.0625 kg/ha
  Preemergence herbicidal rating ZEAMX: 0.0
[15]; rate 0.1250 kg/ha
  Preemergence herbicidal rating ZEAMX: 0.0
[15]; rate 0.2500 kg/ha
  Preemergence herbicidal rating ZEAMX: 2.0
